Measurements taken from patent US20250163038A1, “CBL-B MODULATORS AND USES THEREOF” (Nimbus Clio, Inc., priority 2021, published 2025).
Like-named read-outs stand apart in the source and are kept apart here.

What was measured:
[1] = molecular target: Recombinant human Cbl-b (aa 36-427) (Homo sapiens, UniProt Q13191); experiment: Cbl-b Biochemical Assay (TR-FRET)
[2] = molecular target: T1, Recombinant human c-Cbl (aa 47-435) (Homo sapiens, UniProt P22681); experiment: c-Cbl Biochemical Assay (TR-FRET)
T1 sequence (P22681 47-435): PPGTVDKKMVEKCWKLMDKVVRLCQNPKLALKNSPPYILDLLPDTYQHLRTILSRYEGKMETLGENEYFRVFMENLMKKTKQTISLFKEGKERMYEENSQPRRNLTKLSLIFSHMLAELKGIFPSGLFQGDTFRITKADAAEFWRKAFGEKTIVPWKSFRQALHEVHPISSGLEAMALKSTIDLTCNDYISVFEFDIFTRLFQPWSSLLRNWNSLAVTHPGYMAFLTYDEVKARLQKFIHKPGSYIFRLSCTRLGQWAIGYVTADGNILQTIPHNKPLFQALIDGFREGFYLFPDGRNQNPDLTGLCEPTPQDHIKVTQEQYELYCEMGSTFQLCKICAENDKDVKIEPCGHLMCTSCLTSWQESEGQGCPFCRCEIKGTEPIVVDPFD

[3] = test system: Jurkat (clone E6-1) cells with NFAT luciferase reporter; experiment: Jurkat reporter assay (NFAT Luciferase); assay type: cell-based; conditions: Jurkat NFAT luciferase reporter cells, anti-CD3 stimulation, 6 hr, read-out: Jurkat NFAT EC50
[4] = hc-Cbl Biochemical Assay (TR-FRET), read-out: TR-FRET hcCbl IC50

Chain of Recombinant human Cbl-b (aa 36-427) (Q13191 36-427): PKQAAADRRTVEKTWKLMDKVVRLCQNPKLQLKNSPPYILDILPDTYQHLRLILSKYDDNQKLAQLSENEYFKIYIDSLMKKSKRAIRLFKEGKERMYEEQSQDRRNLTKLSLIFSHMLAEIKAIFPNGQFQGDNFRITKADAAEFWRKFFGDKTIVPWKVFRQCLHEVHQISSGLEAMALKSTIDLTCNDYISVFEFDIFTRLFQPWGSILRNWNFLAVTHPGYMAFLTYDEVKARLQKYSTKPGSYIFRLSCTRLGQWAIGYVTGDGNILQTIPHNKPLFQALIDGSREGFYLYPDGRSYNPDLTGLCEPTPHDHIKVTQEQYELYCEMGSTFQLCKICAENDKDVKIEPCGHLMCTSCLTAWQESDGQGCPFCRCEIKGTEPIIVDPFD

Row | Compound | IC50 ([1]; read-out: TR-FRET hCbl-b IC50) | IC50 [2, 4] | EC50 ([3]; Homo sapiens) | IC50 [1] | IC50 [2] | EC50 [3]
1 | Cn1cnnc1-c1cc(F)ccc1-c1cccc(-c2nc3nc(CN[C@@H]4CCC[C@@H]4O)ccc3o2)c1 [IB-7, (1S,2R)-2-(((2-(4′-Fluoro-2′-(4-methyl-4H-1,2,4-triazol-3-yl)-[1,1′-biphenyl]-3-yl)oxazolo[4,5-b]pyridin-5-yl)methyl)amino)cyclopentan-1-ol] | < 0.2 µM | 0.2 to 1 µM | 1 to 10 µM | – | – | –
2 | Cn1cnnc1-c1cc(F)ccc1-c1cc(-c2nc3cc(CN[C@@H]4CCC[C@@H]4O)cc(F)c3o2)nc(C2CC2)c1 [AFB-2, (1S,2R)-2-{[(2-{6-Cyclopropyl-4-[4-fluoro-2-(4-methyl-1,2,4-triazol-3-yl)phenyl]pyridin-2-yl}-7-fluoro-1,3-benzoxazol-5-yl)methyl]amino}cyclopentan-1-ol] | – | – | < 0.2 µM | < 0.2 µM | < 0.2 µM | –
3 | C[C@H]1CCCN(Cc2cc(C(F)(F)F)c3oc(-c4cccc(-c5ccccc5-c5nncn5C)c4)nc3c2)C1 [Example Q-3, (S)-2-(2′-(4-Methyl-4H-1,2,4-triazol-3-yl)-[1,1′-biphenyl]-3-yl)-5-((3-methylpiperidin-1-yl)methyl)-7-(trifluoromethyl)benzo[d]oxazole] | 0.2 to 1 µM | 1 to 10 µM | 1 to 10 µM | – | – | –
4 | Cn1cnnc1-c1cc(F)ccc1-c1cccc(-c2nc3cc(CN[C@H]4CC[C@@H]4O)cc(C(F)(F)F)c3o2)c1 (single isomer, unassigned) [ADH-1] | < 0.2 µM | < 0.2 µM | – | – | – | < 0.2 µM
5 | C[C@H]1CCCN(Cc2cc(C(F)(F)F)c3oc(-c4cc(-c5ccc(F)cc5-c5nncn5C)cc(C5CC5)n4)nc3c2)C1 [ADO-1, 2-{6-Cyclopropyl-4-[4-fluoro-2-(4-methyl-1,2,4-triazol-3-yl)phenyl]pyridin-2-yl}-5-{[(3S)-3-methylpiperidin-1-yl]methyl}-7-(trifluoromethyl)-1,3-benzoxazole] | < 0.2 µM | < 0.2 µM | < 0.2 µM | – | – | –
6 | Cn1cnnc1-c1cc(F)ccc1-c1cccc(-c2nc3cc(CNCC(C)(C)O)ccc3o2)c1 [AO-2, 1-(((2-(4′-Fluoro-2′-(4-methyl-4H-1,2,4-triazol-3-yl)-[1,1′-biphenyl]-3-yl)benzo[d]oxazol-5-yl)methyl)amino)-2-methylpropan-2-ol] | < 0.2 µM | 1 to 10 µM | 0.2 to 1 µM | – | – | –
7 | Cc1cc(CO)cc2nc(-c3cccc(-c4ccc(F)cc4-c4nncn4C)c3)oc12 [FE-3, (2-(4′-Fluoro-2′-(4-methyl-4H-1,2,4-triazol-3-yl)-[1,1′-biphenyl]-3-yl)-7-methylbenzo[d]oxazol-5-yl)methanol] | 1 to 10 µM | 1 to 10 µM | 10 to 50 µM | – | – | –
8 | Cn1cnnc1-c1cc(F)ccc1-c1cccc(-c2nc3cc(CNS(C)(=O)=O)cc(C(F)(F)F)c3o2)c1 [EC-1, N-((2-(4′-Fluoro-2′-(4-methyl-4H-1,2,4-triazol-3-yl)-[1,1′-biphenyl]-3-yl)-7-(trifluoromethyl)benzo[d]oxazol-5-yl)methyl)methanesulfonamide] | < 0.2 µM | 0.2 to 1 µM | 1 to 10 µM | – | – | –
9 | Cn1cnnc1-c1cc(F)ccc1-c1cc(-c2nc3cc(CNCC4(O)CCC4)cc(F)c3o2)nc(C2CC2)c1 [AFI-1, 1-({[(2-{6-Cyclopropyl-4-[4-fluoro-2-(4-methyl-1,2,4-triazol-3-yl)phenyl]pyridin-2-yl}-7-fluoro-1,3-benzoxazol-5-yl)methyl]amino}methyl)cyclobutan-1-ol] | < 0.2 µM | < 0.2 µM | < 0.2 µM | – | – | –
10 | COC[C@H](C)NCc1cc(C)c2oc(-c3cccc(-c4ccc(F)cc4-c4nncn4C)c3)nc2c1 [AGS-4, ({2-[4′-Fluoro-2′-(4-methyl-1,2,4-triazol-3-yl)-[1,1′-biphenyl]-3-yl]-7-methyl-1,3-benzoxazol-5-yl}methyl)[(2S)-1-methoxypropan-2-yl]amine] | < 0.2 µM | < 0.2 µM | < 0.2 µM | – | – | –
11 | COc1cc(CN[C@H]2C[C@@H](O)C2)cc2nc(-c3cccc(-c4ccc(F)cc4-c4nncn4C)c3)oc12 [GX-1, (1S,3S)-3-(((2-(4′-Fluoro-2′-(4-methyl-4H-1,2,4-triazol-3-yl)-[1,1′-biphenyl]-3-yl)-7-methoxybenzo[d]oxazol-5-yl)methyl)amino)cyclobutan-1-ol] | < 0.2 µM | 0.2 to 1 µM | 1 to 10 µM | – | – | –
12 | Cn1cnnc1-c1cc(F)ccc1-c1cccc(-c2nc3cc(CNC[C@@H](O)C(F)(F)F)cc(C(F)(F)F)c3o2)c1 [CR-3, (R)-1,1,1-trifluoro-3-(((2-(4′-fluoro-2′-(4-methyl-4H-1,2,4-triazol-3-yl)-[1,1′-biphenyl]-3-yl)-7-(trifluoromethyl)benzo[d]oxazol-5-yl)methyl)amino)propan-2-ol] | < 0.2 µM | < 0.2 µM | < 0.2 µM | – | – | –
13 | O[C@H]1CCC[C@H]1NCc1cc(C(F)(F)F)c2oc(-c3cccc(-c4ccc(F)cc4-c4nnco4)c3)nc2c1 [IG-6, (1S,2R)-2-(((2-(4′-Fluoro-2′-(1,3,4-oxadiazol-2-yl)-[1,1′-biphenyl]-3-yl)-7-(trifluoromethyl)benzo[d]oxazol-5-yl)methyl)amino)cyclopentan-1-ol] | < 0.2 µM | < 0.2 µM | 0.2 to 1 µM | – | – | –
14 | COCC(C)(C)NCc1cc(C)c2oc(-c3cc(-c4ccc(F)cc4-c4nncn4C)cc(C4CC4)n3)nc2c1 [AGJ-1, [(2-{6-Cyclopropyl-4-[4-fluoro-2-(4-methyl-1,2,4-triazol-3-yl)phenyl]pyridin-2-yl}-7-methyl-1,3-benzoxazol-5-yl)methyl](1-methoxy-2-methylpropan-2-yl)amine] | < 0.2 µM | 1 to 10 µM | 0.2 to 1 µM | – | – | –
15 | CO[C@H]1CCCC1NCc1cc(C(F)(F)F)c2oc(-c3cccc(-c4ccc(F)cc4-c4nncn4C)c3)nc2c1 (stereo in doubt) [CV-2, (1S,2S)—N-((2-(4′-Fluoro-2′-(4-methyl-4H-1,2,4-triazol-3-yl)-[1,1′-biphenyl]-3-yl)-7-(trifluoromethyl)benzo[d]oxazol-5-yl)methyl)-2-methoxycyclopentan-1-amine] | < 0.2 µM | < 0.2 µM | 0.2 to 1 µM | – | – | –
16 | Cn1cnnc1-c1cc(F)ccc1-c1ccnc(-c2nc3cc(CN[C@@H]4CCC[C@@H]4O)cc(C(F)(F)F)c3o2)c1 [AEG-8, (1S,2R)-2-{[(2-{4-[4-Fluoro-2-(4-methyl-1,2,4-triazol-3-yl)phenyl]pyridin-2-yl}-7-(trifluoromethyl)-1,3-benzoxazol-5-yl)methyl]amino}cyclopentan-1-ol] | < 0.2 µM | < 0.2 µM | < 0.2 µM | – | – | –
17 | COc1cc(CN[C@@H](C)C2CCC2)cc2nc(-c3cccc(-c4ccc(F)cc4-c4nncn4C)c3)oc12 [GF-2, (S)-1-Cyclobutyl-N-((2-(4′-fluoro-2′-(4-methyl-4H-1,2,4-triazol-3-yl)-[1,1′-biphenyl]-3-yl)-7-methoxybenzo[d]oxazol-5-yl)methyl)ethan-1-amine] | < 0.2 µM | < 0.2 µM | < 0.2 µM | – | – | –
18 | COCCNCc1cc2nc(-c3cccc(-c4ccc(F)cc4-c4nncn4C)c3)oc2c(F)c1F [IY-1, N-((6,7-Difluoro-2-(4′-fluoro-2′-(4-methyl-4H-1,2,4-triazol-3-yl)-[1,1′-biphenyl]-3-yl)benzo[d]oxazol-5-yl)methyl)-2-methoxyethan-1-amine] | < 0.2 µM | < 0.2 µM | < 0.2 µM | – | – | –
